In patent US6355633B1, “Aryl sulfonic acids and derivatives as FSH antagonists” (American Home Products Corporation, priority 1999, dated 2002):
pIC50: −log10 of the molar value.

Tests used:
FSH receptor = target: T1, FSH receptor (Rattus norvegicus, UniProt P20395); experiment: In Vitro Bio-test Procedure of Agonists and Antagonists to the FSH Receptor Using Primary Cultures of Rat Granulosa (estradiol secretion); format: cell-based; conditions: antagonist mode, inhibition of FSH-induced estradiol secretion (ED50 of FSH, 0.5 ng/mL), rat granulosa cells, 72 h
T1 construct: endogenous in cells; host or cells: primary ovarian granulosa cells of DES-treated immature Sprague-Dawley rats
T1 sequence (P20395 18-692): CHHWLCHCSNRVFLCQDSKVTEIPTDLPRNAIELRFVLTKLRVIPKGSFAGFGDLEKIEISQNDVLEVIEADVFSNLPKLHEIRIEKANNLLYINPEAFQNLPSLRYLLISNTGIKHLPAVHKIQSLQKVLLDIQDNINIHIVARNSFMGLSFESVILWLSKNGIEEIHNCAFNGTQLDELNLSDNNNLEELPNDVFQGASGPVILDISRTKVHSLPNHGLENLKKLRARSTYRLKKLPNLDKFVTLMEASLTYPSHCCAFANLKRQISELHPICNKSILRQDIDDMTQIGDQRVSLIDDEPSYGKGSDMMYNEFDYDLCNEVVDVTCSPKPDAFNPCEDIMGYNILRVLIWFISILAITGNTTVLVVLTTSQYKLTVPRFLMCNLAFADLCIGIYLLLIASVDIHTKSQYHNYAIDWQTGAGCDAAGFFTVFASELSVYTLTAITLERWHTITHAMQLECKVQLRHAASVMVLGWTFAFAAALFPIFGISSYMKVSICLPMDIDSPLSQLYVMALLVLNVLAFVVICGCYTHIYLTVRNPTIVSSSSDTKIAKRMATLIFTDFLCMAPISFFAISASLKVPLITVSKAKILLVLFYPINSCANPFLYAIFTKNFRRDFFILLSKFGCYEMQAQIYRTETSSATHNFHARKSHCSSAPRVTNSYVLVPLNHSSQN
Protocol: In Vitro Bio-test Procedure of Agonists and Antagonists to the FSH Receptor Using Primary Cultures of Rat Granulosa
Materials and Methods: Reagents
The concentration of vehicle was maintained constant throughout all dilutions.
Preparation of Granulosa Cells: Twenty-four day-old immature female Sprague-Dawley rats (Charles River Laboratories, Wilmington, Mass.) were used as donors for ovarian granulosa cells. The animals were treated by single daily injections of 100 mg/kg diethylstilbestrol (DES) in oil over three days. On the fourth day, animals were sacrificed by CO2 asphyxiation and the ovaries were removed. Ovaries were washed three times in 50 mL of sterile HEPES-buffered saline (HBS, pH 7.4). Granulosa cells were harvested by incubating ovaries in a hypertonic medium consisting of serum-free McCoy*s SA medium (Gibco Life Sciences, Grand Island, N.Y.) supplemented with […], […], 5 ng/mL sodium selenite (ITS, Sigma Chemical Co., St. Louis Mo.), […] L-glutamine, 100 nM testosterone, 100 nM DES and 100 U/mL penicillin/[…]/250 ng/mL amphotericin B (antibiotic/antimycotic, Gibco) containing 0.5 M sucrose and 0.1 mM EGTA. Ovaries were then incubated for 45 min. at 37 C. in a humidified incubator gassed with 95% air/5% CO2. They were washed 3 times with 10 mL isotonic medium (hypertonic medium without sucrose and EGTA) and incubated another 45 min. in isotonic medium at 37 C. Granulosa cells were harvested by squeezing the ovaries between two sterile glass microscope slides. Isolated granulosa cells were then placed in an 50 mL centrifuge tube and washed two times by the addition of 50 mL serum-free McCoy*s 5A medium followed by centrifugation at 700×g for 5 min. After the final spin, the cells were resuspended by gentle trituration in 25 mL serum-free medium, an aliquot counted in a hemocytometer and viability estimated by trypan blue exclusion. Cells were plated into 24-well Nunc tissue culture plates at 200,000 viable cells/well in […].
Procedure: Following plating of the cells, the plates are incubated at 37 C for 2-4 hours at which time the treatments are added to the cells. Treatments are added to the wells at 2× the desired final concentration in […] in isotonic medium containing 0.2% BSA. The cells are incubated at 37 C. for 72 h. At the end of the incubation period, the medium is removed from the wells and tested for estradiol concentration by radioimmunoassay.
Experimental Groups: In the 24-well format, the plate was divided into 6 columns of 4 wells/column. One plate per compound was used to test either agonist or antagonist modes. […]
Four different doses of compound were tested in the antagonist mode. In addition, one column was used for a negative control (vehicle alone) and the other remaining column for a positive control (ED50 of FSH alone).
The doses of compound chosen to test were extrapolated from the initial functional screening process. Along with the plates testing compounds, another plate was run in parallel using a dose-response of FSH (0.01-100 ng/mL) as a positive control.
Analysis of Results: Estradiol was expressed as pg/mL. Estradiol secretion in agonist mode, or the ability of the compound to inhibit FSH-induced estradiol secretion in antagonist, was compared to the appropriate negative and positive controls. Data were analyzed statistically by analysis of variance with Huber weighting of log transformed data. Paired differences were determined using the LSD test
Reference Compounds: Test compounds were compared to the effect of purified or recombinant human FSH.

[1] = test system: FSH-induced changes in ovarian follicular maturation; experiment: Immature Rat Test Procedure (FSH-induced organ wet weight); format: in vivo; conditions: immature rats, twice daily for three days with half-maximal dose of hFSH; for IC50 (mg/Kg) ovaries: ovarian wet weight; for IC50 (mg/Kg) uterus: uterine wet weight
Protocol: Immature Rat Test Procedure
In order to assess the ability of compounds to affect FSH-induced changes in ovarian follicular maturation in vivo, immature rats (18 days of age) are treated twice daily for three days with compound in the presence of a half-maximal dose of purified human FSH. Animals are treated via the i.p. or p.o. routes. On the fourth day following treatment, animals are euthanized and the ovaries, uterus and spleen (the spleen is a control tissue that should not respond to FHS stimulation) collected for wet weight determination. In each experiment animals treated with vehicle alone or FSH alone are used as negative and positive controls, respectively.

In the case of “2,2′-[(E)-1,2-Ethenediyl]bis[5-[[4-(methylthio)-3-(4-morpholinylsulfonyl)benzoyl]amino]benzenesulfonic Acid] [Example 30b]”, the pIC50 (FSH receptor) was 5.82, the “IC50 (mg/Kg) ovaries” value ([1]; ip) was 8.1 mg/kg and the “IC50 (mg/Kg) uterus” value ([1]; ip) was 1.3 mg/kg. The “IC50 (mg/Kg) ovaries” value ([1]; po) was 23 mg/kg and the “IC50 (mg/Kg) uterus” value ([1]; po) was 10 mg/kg.
